These results are taken from PMC3623016 (Journal of biomolecular screening, 2012).

In general, EC50 refers to the concentration that produces a half-maximal response. As usually defined, the IC50 is the concentration that inhibits the measured activity by half. A higher IC50 goes with weaker potency in that assay.

Values joined by “and” are separate entries in the source; they are usually repeats but may differ in a detail not shown here. Identical values can stand only once. “Also recorded” adds a separate entry of the source. Counter-ions that a name gives are not always drawn.

Data set [1] deals with T1, ABCB1 (Homo sapiens, UniProt P08183). As to the kind of experiment: JC-1 efflux inhibition dose-response, flow cytometry, Jurkat-DNR cells.
T1 sequence (P08183 whole entry): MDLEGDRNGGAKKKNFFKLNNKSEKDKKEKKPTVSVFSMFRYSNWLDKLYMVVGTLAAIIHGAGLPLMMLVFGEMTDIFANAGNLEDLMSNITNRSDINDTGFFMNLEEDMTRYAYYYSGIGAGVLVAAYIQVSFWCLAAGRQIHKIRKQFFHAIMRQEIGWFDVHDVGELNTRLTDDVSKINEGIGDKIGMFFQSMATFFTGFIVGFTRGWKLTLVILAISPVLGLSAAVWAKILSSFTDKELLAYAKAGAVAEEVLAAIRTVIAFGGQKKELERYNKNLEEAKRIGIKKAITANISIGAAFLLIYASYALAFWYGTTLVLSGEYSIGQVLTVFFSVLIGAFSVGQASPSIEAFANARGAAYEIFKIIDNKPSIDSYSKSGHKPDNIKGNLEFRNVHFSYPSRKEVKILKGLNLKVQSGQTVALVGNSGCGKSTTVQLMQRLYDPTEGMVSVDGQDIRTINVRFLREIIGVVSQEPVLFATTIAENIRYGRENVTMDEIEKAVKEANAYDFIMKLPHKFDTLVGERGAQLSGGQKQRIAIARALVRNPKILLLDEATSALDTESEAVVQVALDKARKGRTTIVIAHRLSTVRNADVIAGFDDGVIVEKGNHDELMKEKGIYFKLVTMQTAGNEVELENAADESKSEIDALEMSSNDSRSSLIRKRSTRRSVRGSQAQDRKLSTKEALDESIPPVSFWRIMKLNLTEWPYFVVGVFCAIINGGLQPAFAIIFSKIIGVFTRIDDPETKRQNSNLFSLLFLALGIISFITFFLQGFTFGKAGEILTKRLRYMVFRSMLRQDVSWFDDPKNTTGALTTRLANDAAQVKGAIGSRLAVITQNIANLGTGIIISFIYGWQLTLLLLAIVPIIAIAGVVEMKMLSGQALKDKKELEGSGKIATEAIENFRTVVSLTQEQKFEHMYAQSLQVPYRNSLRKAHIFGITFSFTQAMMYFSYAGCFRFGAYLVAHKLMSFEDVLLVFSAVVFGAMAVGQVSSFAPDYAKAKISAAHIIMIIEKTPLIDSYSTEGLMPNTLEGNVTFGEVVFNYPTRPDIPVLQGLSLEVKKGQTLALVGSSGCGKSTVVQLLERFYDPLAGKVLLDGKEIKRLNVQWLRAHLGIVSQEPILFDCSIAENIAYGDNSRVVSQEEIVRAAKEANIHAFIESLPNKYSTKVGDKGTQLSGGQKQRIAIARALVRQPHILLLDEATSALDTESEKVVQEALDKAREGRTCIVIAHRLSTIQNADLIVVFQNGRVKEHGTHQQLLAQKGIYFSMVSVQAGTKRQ
The subject of the next data set is Igrov1/T8 derived tumors. Kind of data set: Preliminary in vivo study, ABCG2 resistant tumors, combination with topotecan. Details: species or system CB-17 SCID mice. Particulars: for tumor size: intratumoral, daily, 0 to 96 hr, n = 3, p < 0.001.
Data set [2] deals with T2, ABCG2 (Homo sapiens, UniProt Q9UNQ0).
T2 sequence (Q9UNQ0 1-655): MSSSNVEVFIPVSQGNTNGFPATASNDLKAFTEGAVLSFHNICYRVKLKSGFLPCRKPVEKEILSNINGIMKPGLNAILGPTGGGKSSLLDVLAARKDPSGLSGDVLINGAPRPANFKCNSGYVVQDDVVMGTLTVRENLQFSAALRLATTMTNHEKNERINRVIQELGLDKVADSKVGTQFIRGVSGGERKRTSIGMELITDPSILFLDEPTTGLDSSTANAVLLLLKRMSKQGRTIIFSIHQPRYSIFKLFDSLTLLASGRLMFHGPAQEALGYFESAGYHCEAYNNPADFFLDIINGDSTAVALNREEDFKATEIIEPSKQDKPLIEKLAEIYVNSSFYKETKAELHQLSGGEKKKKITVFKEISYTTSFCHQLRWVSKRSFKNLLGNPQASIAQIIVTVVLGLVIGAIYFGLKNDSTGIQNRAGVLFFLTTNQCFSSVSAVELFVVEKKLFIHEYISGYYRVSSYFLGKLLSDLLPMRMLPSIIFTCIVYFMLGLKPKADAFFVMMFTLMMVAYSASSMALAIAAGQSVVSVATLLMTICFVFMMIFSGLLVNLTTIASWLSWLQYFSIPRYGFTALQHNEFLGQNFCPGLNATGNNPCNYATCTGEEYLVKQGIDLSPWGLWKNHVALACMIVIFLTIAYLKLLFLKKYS
Kind of data set: JC-1 efflux inhibition dose-response, flow cytometry, Ig-MXP3 cells. It counts as cell-based. Particulars: for ∼Fold G2 Selective: quotient of average ABCB1 IC50 and average ABCG2 IC50, JC-1 efflux assay. A general note: In flow cytometry, cells or beads pass a laser one at a time.

In a further data set the test system is Ig-MXP3 cells. Kind of data set: Direct cytotoxicity. It counts as cell-based.
Data set [3] has as its target T2, ABCG2. Kind of data set: Chemoreversal secondary assay.
Data set [4] has as its target T1, ABCB1. Kind of data set: Chemoreversal secondary assay.
Data set [5] relates to non-resistant (ABCG2 non-expressing) parental tumor cells. Kind of data set: Topotecan killing of parental tumor cells. It counts as cell-based. The settings on record: read-out: EC50 parental cells.
The test system of data set [6] is drug resistant (ABCG2 expressing) tumor cells. As to the kind of experiment: Topotecan killing of drug resistant tumor cells. The class given is cell-based. Particulars: read-out: EC50 resistant cells.

For the molecule `O=C(c1ccoc1)N1CCN(c2cc(-c3ccco3)nc3cc(-c4ccccc4)nn23)CC1` [Compound 1], the EC50 is 4.65 µM at ABCB1 [1] (read-out: ABCB1 EC50, efflux assay, as worded) and 0.13 µM on ABCG2 [2] (read-out: ABCG2 EC50, efflux assay, as worded). In addition, the tumor size entry with Igrov1/T8 derived tumors (100 nM of 1 with 150 nM TPT) was “dramatically reduced tumor size; also recorded: Significant tumor reduction”. For the same molecule, the “higher potency in ABCG2 than Ko143” value on ABCG2 [2] (JC-1 efflux reporter system) is listed as “approximately 100 fold”. The “∼Fold G2 Selective” value on ABCG2 [2] was 36 fold and 35.8 fold. In the data set with Jurkat-DNR cells, the “ABCB1 TD50” value was 5.52 µM. In addition, the “ABCG2 TD50” value in the data set on Ig-MXP3 cells was determined as 18.30 µM.

As to `CN(C)C(=O)CCSC(SCCC(=O)O)c1cccc(/C=C/c2ccc3ccc(Cl)cc3n2)c1` (stereo not drawn) [Compound 5, MK571, reference compound], the concentration for a half-maximal effect (EC50) on ABCG2 [3] stood at 57.4 µM; at ABCB1 [4], 20.4 µM. The IC50 on ABCB1 [1] and against ABCG2 [2] was more than 50 µM throughout.

`Cc1nc2cc(-c3cccc(F)c3)nn2c(N2CCN(C(=O)c3ccco3)CC2)c1C` [Compound 7]: the tumor size entry with Igrov1/T8 derived tumors (500 nM of 7 with 150 nM TPT) is listed as “dramatically reduced tumor size; also recorded: Significant tumor reduction”.

As for `COc1ccccc1-c1cc2nc(-c3ccccc3)cc(N3CCN(C(=O)c4ccoc4)CC3)n2n1` [Compound 34], the “∼Fold G2 Selective” value at ABCG2 [2] is listed as 4.8 fold. In addition, the “ABCB1 TD50” value with Jurkat-DNR cells is 4.37 µM. Also, the “ABCG2 TD50” value in the data set with Ig-MXP3 cells was determined as 6.50 µM.

For `COc1ccc(-c2cc3nc(-c4ccccc4)cc(N4CCN(C(=O)c5ccoc5)CC4)n3n2)cc1` [Compound 36], the “∼Fold G2 Selective” value at ABCG2 [2] is 1.2 fold. In addition, the “ABCB1 TD50” value in the data set with Jurkat-DNR cells is 5.54 µM. Moreover, the “ABCG2 TD50” value in the data set with Ig-MXP3 cells was more than 100 µM.

With `COc1ccccc1-c1cc(N2CCN(C(=O)c3ccoc3)CC2)n2nc(-c3ccccc3)cc2n1` [Compound 44], the “∼Fold G2 Selective” value at ABCG2 [2] is on record as 1.2 fold. Also, the “ABCB1 TD50” value with Jurkat-DNR cells amounted to 3.73 µM. The “ABCG2 TD50” value with Ig-MXP3 cells was 7.62 µM.

For `COc1cccc(-c2cc(N3CCN(C(=O)c4ccoc4)CC3)n3nc(-c4ccccc4)cc3n2)c1` [Compound 65], the “∼Fold G2 Selective” value at ABCG2 [2] amounted to 83 fold. The “ABCB1 TD50” value in the data set with Jurkat-DNR cells came out at 5.77 µM. Also, the “ABCG2 TD50” value with Ig-MXP3 cells was determined as 67.80 µM.

Regarding `CC[C@@]1(O)C(=O)OCc2c1cc1n(c2=O)Cc2cc3c(CN(C)C)c(O)ccc3nc2-1` [TPT, topotecan hydrochloride hydrate], the values for the concentration giving a half-maximal response (EC50) in data set [5] and in [6] were 0.007 µM and 0.311 µM, respectively. Further, in the data set on Igrov1/T8 derived tumors (150 nM TPT alone, intratumoral (data not shown)), the growth of tumors result is reported as “did not affect the growth of tumors”.
